Test results as given in US7318939B2 (Vita Green Health Products Co., Ltd., priority 2006, dated 2008).
Several values for one entry are separate records, joined by “and”; a condition that tells them apart may be missing. Equal values may be shown once. Where a name gives a salt, the structure may show the parent alone.

System: male CD1 mice
Experiment: Anti-depressant activity: forced swimming test in mice
Format: in vivo
Settings: 30 mg/kg ip
From the text: A depressed state can be induced in mice by forcing them to swim in a narrow cylinder from which they cannot escape. After an initial period of vigorous activity, the mice adopt a characteristic immobile posture which is readily identifiable.
Fifty-five male CD1 mice weighing 20-25 g at the start of the study were obtained from Charles River Laboratories Espafia (Barcelona, Spain). These mice underwent a prior acclimatization period of 6 days before the start of the experimental work, during which they underwent a veterinary examination in order to assure their good health.
The mice were allotted at random to five groups, each consisting of ten animals. The rest of the animals (one per group) were kept as reserve (these animals are not taken into account in the final results). The experimental design is described in the Table 7 below.
The mice began a fasting period of approximately 6 hours before starting the treatments. At the beginning of the test, the corresponding treatments were administrated by the assigned route at a volume of 10 mL/kg. The test item was administrated at three dose levels of 100, 200 and 300 mg/kg by oral route (gastric gavage or po). The reference item was administrated at the dose level of 30 mg/kg by intraperitoneal route or ip. The Control group only received the vehicle (water for injection) orally (po) by gastric gavage.
Six minutes after the administration of the treatments, each mouse was dropped into the cylinder containing water (forcing it to swim) and left there for 6 minutes, the testing time. The time of immobility of the animal was recorded. A mouse was considered immobile when it ceased struggling and remained floating motionless in the water making only those movements necessary to keep its head above water. […] Finally, once the test was over, the animals were sacrificed by cervical dislocation.

Question: How did the “% decrease versus Control (time of immobility)” value turn out when `CN(C)CCCN1c2ccccc2CCc2ccccc21` [Imipramine HCl, Imipramine hydrochloride] was run?
Answer: 56.2%

Question: What about the “Time of immobility (s) individual values” (animal no. 1-10, hydrochloride) of the same compound?
Answer: 90 s and 140 s and 64 s and 51 s and 3 s and 91 s and 37 s

Question: What about the “Time of immobility (s), mean” value (last 4 min of 6 min test, Mean ± SEM, n = 10, hydrochloride) of the same compound?
Answer: 80.8 ± 13.14 s and 80.8 s
